System: adolescents with Fontan physiology
Test: FUEL trial: echocardiographic myocardial performance index (MPI), blood pool Doppler
Format: in vivo, human
Excerpt: Generally speaking, MPI (also referred to as the Doppler-derived index or Tei Index) is a measure of ventricular systolic and diastolic function as determined by a focused echocardiogram. It combines systolic and diastolic time intervals to assess heart function. More specifically, MPI can be used to assess ventricular performance represented by a numeric value using cardiac time intervals. This numeric value equals the sum of isovolumetric contraction time (ICT) and isovolumetric relaxation time (IRT) divided by ejection time (ET) and can be determined for either the left or right ventricle. Pellett, A. A., et al.: The Tei Index: Methodology and Disease. State Values. Echocardiography: A Jrnl. of CV Ultrasound & Allied Tech. 21(7):669-672 (2004); and Uluçay, A., Tatli E.: Myocardial performance index. Anadolu Kardiyol Derg. 8(2):143-8 (April, 2008), both of which are incorporated herein by reference in their entireties. In the FUEL Trial, the MPI measured the performance of the single functioning ventricle. Thus, the MPI results from the FUEL Trial were determined by velocities obtained from blood pool Doppler assessment of the inflow and outflow tract of the functioning single ventricle. In other words, the FUEL Trial MPI was determined by measuring the cardiac time intervals using pulsed-wave Doppler velocity spectra of the ventricular inflow and outflow of the single functioning ventricle.
Echocardiograms were performed by sonographers with specific training for this protocol. The primary outcome of interest was MPI using Doppler-based measures of inflow and outflow duration. The duration of inflow into the dominant ventricle and outflow across the dominant semilunar valve were measured and used to calculate MPI using the standard formula. Tei C, Ling L H, Hodge D O, et al.: New index of combined systolic and diastolic myocardial performance: a simple and reproducible measure of cardiac function—a study in normal and dilated cardiomyopathy. J Cardiol, 26(6):357-66 (1995); and Pellet A A et al.: The Tei Index: Methodology and Disease State Values. Echocardiography: A Jrnl Of CV Ultrasound & Allied Tech, 21(7):669-672 (2004). Additional tissue Doppler images were obtained and used to calculate the tissue Doppler based MPI as previously described. Harada K, Tamura M, Toyono M et al.: Comparison of the right ventricular Tei index by tissue Doppler imaging to that obtained by pulsed Doppler in children without heart disease. Am J Cardiol, 90(5):566-9 (2002). Whenever possible, three measurements were made and the mean duration was used for the calculation.
The primary outcome was the change in oxygen consumption at peak exercise (max or peak VO2) from baseline to the 26-week visit. Secondary exercise outcomes included change in additional measures at maximal exertion, as well as change in measures of submaximal exercise at the ventilatory anaerobic threshold (VAT). […] Safety was monitored through adverse event reports, which were collected according to a pre-specified protocol of study coordinator outreach, and through ad hoc patient and family communication with members of the study team at each site.
Each subject underwent an echocardiogram at the start and finish of the 26 weeks. […] The change in the MPI was determined by velocities obtained from blood pool Doppler assessment of the inflow and outflow tract of the single functioning dominant ventricle. […]

CCCOc1ccc(S(=O)(=O)NCCC2CCCN2C)cc1-c1nc2c(CCC)nn(C)c2c(=O)[nH]1 (centres unmarked) [Udenafil, udenafil]
MPI difference, Week 26 - Baseline, mean (87.5 mg twice daily, paired data, decrease shows improvement, p 0.028 vs placebo): 122: −0.02 | MPI, LS Mean Dif A − B (udenafil − placebo) (Baseline, p 0.818): −0.0 | MPI, LS Mean Dif A − B (udenafil − placebo) (Week 26, p 0.024): −0.04 | MPI, LS Mean Dif A − B (udenafil − placebo) of difference Week 26 - Baseline (p 0.028): −0.03 | MPI, udenafil treated group compared to placebo (p=0.028): statistically significant improvement

Reference: patent US20250186448A1 (Mezzion Pharma Co., Ltd., priority 2021, published 2025)
